For one experiment, the target named is Bla (Escherichia coli, UniProt P62593). The note with it: cited from earlier work.
Experiment [1] concerns Bla-stably-transfected C6 glioma cells. Put plainly: Fluorescence imaging of Bla activity in living cells. It is filed as cell-based. The following applies: loaded in Hank's Balanced Salts Solution 25 min, room temperature; excitation 540/25, emission 635/55. As to the method: FIG. 13A illustrates the structures of CR2 and CR2/AM. FIG. 13B presents fluorescence images (40×magnification) of wild type (right) and Bla-stably-transfected (left) C6 glioma cells loaded with CR2/AM in Hank's Balanced Salts Solution for 25 min at room temperature. The excitation filter was set at 540/25 (540 nm peak with a width of 25 nm around the peak). The emission filter was set at 635/55.

Bla, sequence (P62593 24-286 limits assumed): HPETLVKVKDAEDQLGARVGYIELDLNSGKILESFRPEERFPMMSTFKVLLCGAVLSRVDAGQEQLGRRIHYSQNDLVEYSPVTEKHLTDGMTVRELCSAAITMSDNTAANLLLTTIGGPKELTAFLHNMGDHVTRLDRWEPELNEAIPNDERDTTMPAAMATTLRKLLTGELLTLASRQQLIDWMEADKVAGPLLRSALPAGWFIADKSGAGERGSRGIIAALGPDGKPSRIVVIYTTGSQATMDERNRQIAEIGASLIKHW

For the compound `O=C(CNC(=O)c1cc2cc(Cl)c(O)cc2oc1=O)N[C@@H]1C(=O)N2C(C(=O)O)=C(CSc3ccc4c(c3)C(=O)OC43c4ccc(O)cc4Oc4cc(O)ccc43)CS[C@H]12` [CCF2], on Bla (Zlokarnik et al., Science 1998), the Km is 23 µM and the catalytic constant (kcat) is 29 s⁻¹. Besides, on Bla (at similar wavelengths (about 460 nm)), the “enhancement of fluorescent emission” value is 20 fold.
As for `CC(=O)OCOC(=O)C1=C(/C=C\COc2ccc3nc4ccc(=O)cc-4oc3c2)C[S@H](O)[C@@H]2[C@H](NC(=O)Cc3cccs3)C(=O)N12` [CR2/AM], the “imaging of Bla activity in living cells” value in experiment [1] is “able to image the Bla activity”.

By Km is commonly meant the concentration of substrate that gives half-maximal velocity. Broadly, the kcat is the number of substrate molecules converted per active site and unit of time at saturation.
